{"source": "patent US20220098196A1", "about": "“TRAPPING-FREE PARP INHIBITORS” (The Board of Regents of the University of Texas System, priority 2019, published 2022)", "key": {"PARP1 [1]": {"target": "T1, PARP1 (Homo sapiens, UniProt P09874)", "T1 sequence (P09874 whole entry)": "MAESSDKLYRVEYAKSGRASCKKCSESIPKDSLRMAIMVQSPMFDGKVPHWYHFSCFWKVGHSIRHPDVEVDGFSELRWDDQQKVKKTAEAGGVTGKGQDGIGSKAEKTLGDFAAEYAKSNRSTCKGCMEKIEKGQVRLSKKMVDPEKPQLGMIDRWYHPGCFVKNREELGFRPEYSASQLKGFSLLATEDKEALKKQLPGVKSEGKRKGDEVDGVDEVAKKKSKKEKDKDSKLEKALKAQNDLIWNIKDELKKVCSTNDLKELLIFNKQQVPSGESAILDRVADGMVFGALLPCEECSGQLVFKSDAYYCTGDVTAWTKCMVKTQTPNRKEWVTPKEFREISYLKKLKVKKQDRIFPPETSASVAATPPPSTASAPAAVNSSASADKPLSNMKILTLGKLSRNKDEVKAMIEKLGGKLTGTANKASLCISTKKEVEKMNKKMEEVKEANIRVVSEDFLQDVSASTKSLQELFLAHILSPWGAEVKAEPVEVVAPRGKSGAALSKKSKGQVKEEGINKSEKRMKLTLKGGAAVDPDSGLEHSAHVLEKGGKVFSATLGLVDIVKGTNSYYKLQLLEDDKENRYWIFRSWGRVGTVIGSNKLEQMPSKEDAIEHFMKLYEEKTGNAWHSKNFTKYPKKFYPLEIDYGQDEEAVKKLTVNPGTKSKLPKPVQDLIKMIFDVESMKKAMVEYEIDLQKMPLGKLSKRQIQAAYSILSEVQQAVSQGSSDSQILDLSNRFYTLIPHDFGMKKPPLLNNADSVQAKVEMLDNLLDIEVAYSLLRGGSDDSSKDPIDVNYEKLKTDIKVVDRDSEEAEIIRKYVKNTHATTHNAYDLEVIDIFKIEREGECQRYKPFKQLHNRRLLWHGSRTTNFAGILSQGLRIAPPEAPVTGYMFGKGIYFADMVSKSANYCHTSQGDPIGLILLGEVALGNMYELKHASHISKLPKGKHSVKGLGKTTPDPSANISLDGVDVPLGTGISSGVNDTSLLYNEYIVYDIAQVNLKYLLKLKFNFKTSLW", "test": "PARP1 degradation in HeLa cells (immunoblotting)", "assay_type": "cell-based", "parameters": "host or cells: HeLa", "conditions": "24 hours; for effect on iRucaparib-induced PARP1 degradation: iRucaparib 5 μM plus MG132 (1 μM), Rucaparib (1 μM) or increasing pomalidomide; for PARP1 degradation: increasing concentrations", "quoted_text": "(§1) Immunoblotting. Cells were washed once with cold PBS and lysed with the SDS lysis buffer (1% SDS, 10 mM HEPES pH 7.0, 2 mM MgCl2, 500 U universal nuclease). Protein concentrations were determined by the BCA assay kit (Thermo Fisher Scientific). A total of 20 μg proteins (40 μg proteins for PAR immunoblotting experiments) were loaded onto the SDS-PAGE gel and were then transferred to a nitrocellulose membrane. Nitrocellulose membranes were then blocked with the TBST buffer containing 5% milk (Bio-Rad). Membranes were incubated with the primary antibodies overnight at 4° C. and the secondary antibodies for 1 hour at room temperature (RT). The blots were developed using enhanced chemiluminescence and were exposed on autoradiograph films."}, "PARP1 [2]": {"target": "T1, PARP1", "test": "PARP1 degradation in VHL-proficient (BT-549, PC-3) and VHL-deficient (786-O) cells (immunoblotting)", "assay_type": "cell-based", "parameters": "host or cells: MDA-MB-468; BT-549; PC-3; 786-O", "conditions": "24 hours", "quoted_text": "as §1"}, "PARP1 [3]": {"target": "T1, PARP1", "test": "PARP1 trapping in HeLa cells (subcellular fractionation, chromatin-bound fraction)", "assay_type": "cell-based", "parameters": "host or cells: HeLa", "conditions": "5 μM for all compounds, MMS 0.01%", "experimental": "Subcellular Proteins Extraction. […] The cytosolic proteins were isolated by incubating the cells with the CEB buffer for 10 min at 4° C., and centrifuged at 500 g for 5 min. The membrane proteins were isolated by incubating the pellet from previous step with the MEB buffer for 10 min at 4° C., and centrifuged at 3000 g for 5 min. The soluble nuclear proteins were isolated by incubating the pellet from previous step with the NEB buffer for 30 min at 4° C., and centrifuged at 5000 g for 5 min. The chromatin bound proteins were isolated by incubating the pellet from previous step with the NEB buffer supplemented with nuclease for 15 min at RT and centrifuged at 16000 g for 5 min. Protein concentrations were determined by the BCA assay kit."}, "PARP1 [4]": {"target": "T1, PARP1", "test": "In Vitro PARP1 Activity Assay (PARP universal chemiluminescent assay kit)", "assay_type": "biochemical", "conditions": "in vitro", "experimental": "In Vitro PARP1 Activity Assay. […] Briefly, the histone-coated strip wells were hydrated with the assay buffer for 30 min. The various compounds were added and were incubated with the PARP enzyme for 10 min. The reaction cocktail containing biotinylated NAD^+ was then added into the system, which was incubated for 1 hour to activate PARP1. After the reaction, the wells were washed twice with 0.1% Triton X-100/PBS and twice with PBS. The wells were incubated with Strep-HRP for another hour and were washed again as described above. PeroxyGlow reagents were mixed and added into the strip wells, and the biotin signal on coated histone was immediately measured with chemiluminescence on a Synergy microplate reader (Bio-Tek). The well without PARP1, and the well with PARP1 only was used as the negative (0%) and positive (100%) control, respectively."}, "PARP1 [5]": {"target": "T1, PARP1", "test": "TMT quantitative proteomics in BT-549 cells, PARP1", "assay_type": "cell-based", "conditions": "iRucaparib 5 μM or VHL-Rucaparib 20 μM, 24 hours, 8,207 quantified proteins", "source_text": "Quantitative Mass Spectrometry.\nProteins were then extracted using methanol-chloroform precipitation.\nThe maximum intensity of each reporter ion was extracted."}, "ZFP91": {"target": "ZFP91 (Homo sapiens, UniProt Q96JP5+Q96SW2)", "sequence (Q16531 2-1140)": "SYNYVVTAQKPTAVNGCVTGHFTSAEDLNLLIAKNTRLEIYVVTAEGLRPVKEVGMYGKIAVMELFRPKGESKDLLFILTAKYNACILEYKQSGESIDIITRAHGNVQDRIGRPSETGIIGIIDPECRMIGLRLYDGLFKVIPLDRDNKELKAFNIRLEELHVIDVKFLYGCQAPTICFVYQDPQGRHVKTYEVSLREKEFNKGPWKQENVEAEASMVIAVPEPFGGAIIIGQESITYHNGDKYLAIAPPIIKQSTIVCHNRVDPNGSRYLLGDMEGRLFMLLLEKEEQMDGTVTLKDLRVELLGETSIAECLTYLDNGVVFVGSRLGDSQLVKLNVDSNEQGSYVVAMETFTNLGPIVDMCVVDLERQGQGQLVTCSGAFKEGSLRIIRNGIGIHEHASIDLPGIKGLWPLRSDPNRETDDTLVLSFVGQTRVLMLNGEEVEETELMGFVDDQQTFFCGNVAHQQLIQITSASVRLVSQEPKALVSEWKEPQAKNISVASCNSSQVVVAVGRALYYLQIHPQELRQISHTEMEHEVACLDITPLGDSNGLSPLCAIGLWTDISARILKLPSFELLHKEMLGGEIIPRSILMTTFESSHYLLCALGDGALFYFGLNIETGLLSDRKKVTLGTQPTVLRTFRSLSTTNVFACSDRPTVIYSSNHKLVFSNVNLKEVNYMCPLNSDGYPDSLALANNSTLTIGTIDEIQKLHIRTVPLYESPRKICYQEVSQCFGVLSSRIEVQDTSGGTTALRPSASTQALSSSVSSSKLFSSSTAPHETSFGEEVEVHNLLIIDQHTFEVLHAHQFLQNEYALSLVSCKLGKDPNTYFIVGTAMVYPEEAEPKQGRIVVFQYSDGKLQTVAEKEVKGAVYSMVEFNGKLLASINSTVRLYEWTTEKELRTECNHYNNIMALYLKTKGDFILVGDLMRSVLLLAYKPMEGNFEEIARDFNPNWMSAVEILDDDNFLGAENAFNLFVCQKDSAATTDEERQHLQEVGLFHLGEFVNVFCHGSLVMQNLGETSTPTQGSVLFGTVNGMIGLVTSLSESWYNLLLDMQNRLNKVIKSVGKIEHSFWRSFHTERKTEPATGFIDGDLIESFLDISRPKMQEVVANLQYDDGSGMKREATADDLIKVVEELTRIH", "sequence (Q96SW2 whole entry)": "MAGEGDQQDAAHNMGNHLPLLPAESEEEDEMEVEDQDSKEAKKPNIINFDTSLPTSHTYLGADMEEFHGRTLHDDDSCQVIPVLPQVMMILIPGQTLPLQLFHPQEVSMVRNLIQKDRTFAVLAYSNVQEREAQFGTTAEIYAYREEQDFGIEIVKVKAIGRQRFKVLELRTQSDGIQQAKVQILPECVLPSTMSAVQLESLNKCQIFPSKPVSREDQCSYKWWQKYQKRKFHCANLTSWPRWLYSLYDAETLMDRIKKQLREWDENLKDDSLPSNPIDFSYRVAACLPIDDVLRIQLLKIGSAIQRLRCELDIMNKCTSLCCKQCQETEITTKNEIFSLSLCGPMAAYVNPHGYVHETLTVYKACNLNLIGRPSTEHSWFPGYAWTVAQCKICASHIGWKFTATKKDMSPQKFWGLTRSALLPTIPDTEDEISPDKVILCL", "sequence (Q96JP5 2-570)": "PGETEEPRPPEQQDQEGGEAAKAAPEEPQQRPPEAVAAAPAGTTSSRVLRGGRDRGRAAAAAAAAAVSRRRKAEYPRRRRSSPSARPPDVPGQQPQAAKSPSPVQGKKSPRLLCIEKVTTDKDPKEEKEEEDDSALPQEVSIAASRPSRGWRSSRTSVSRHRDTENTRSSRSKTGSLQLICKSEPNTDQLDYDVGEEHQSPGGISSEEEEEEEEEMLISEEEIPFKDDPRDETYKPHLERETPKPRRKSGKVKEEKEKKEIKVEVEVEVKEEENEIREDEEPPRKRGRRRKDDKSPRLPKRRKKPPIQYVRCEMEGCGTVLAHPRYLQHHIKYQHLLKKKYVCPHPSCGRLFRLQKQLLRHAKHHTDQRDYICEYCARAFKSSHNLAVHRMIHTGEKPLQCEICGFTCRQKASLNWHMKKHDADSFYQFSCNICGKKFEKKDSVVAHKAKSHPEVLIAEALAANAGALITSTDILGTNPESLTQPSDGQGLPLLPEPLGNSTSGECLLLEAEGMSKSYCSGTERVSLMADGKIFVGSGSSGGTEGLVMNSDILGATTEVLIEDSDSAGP", "test": "TMT quantitative proteomics in BT-549 cells, ZFP91", "assay_type": "cell-based", "parameters": "host or cells: HeLa; BT-549", "conditions": "VHL-Rucaparib 20 μM, 24 hours", "experimental": "Quantitative Mass Spectrometry. […] Two biological replicate samples were prepared for each treatment condition. Cells were washed with cold PBS and lysed using the SDS lysis buffer. Protein concentrations were determined by the BCA assay (Thermo Fisher Scientific). For each sample, 500 μg of protein was used for the subsequent TMT experiments^34.\nFor the TMT experiments, proteins were reduced with 2 mM DTT for 10 min and alkylated with 50 mM iodoacetamide for 30 min in dark. Proteins were then extracted using methanol-chloroform precipitation. Protein pellets were dissolved in 400 μL 8 M Urea buffer (8 M urea, 50 mM Tris-HCl, 10 mM EDTA, pH 7.5) and were digested by Lys-C (Wako, at a 1:100 enzyme/protein ratio) for 2 hours at RT. The urea concentration was then reduced to 2 M using freshly made 100 mM ammonium bicarbonate solution. […]\nSamples were desalted and fractioned by bRPLC (basic pH reversed phase HPLC) on a ZORBAX 300 Extend-C18 column (Narrow Bore RR 2.1 mm×100 mm, 3.5 μm particle size, 300 Å pore size). […] Samples were then analyzed on an Orbitrap Elite mass spectrometer (Thermo Fisher Scientific) using a top 15 HCD (higher-energy collisional dissociation) method.\nThe maximum intensity of each reporter ion was extracted. For each reporter ion channel, the observed signal-to-noise ratio was summed across all quantified proteins and was normalized."}, "[6]": {"conditions": "Phase III, patients taking pomalidomide and dexamethasone vs. dexamethasone alone; p=0.0002; cited from earlier work"}}, "note": "Where a SMILES comes first, the peptide text is derived from it. The star is where a group is joined. Cbz = O=C(OCc1ccccc1)*"}
{"smiles": "CC(C)C[C@@H](C=O)NC(=O)[C@H](CC(C)C)NC(=O)[C@H](CC(C)C)NC(=O)OCc1ccccc1", "note": "[MG132, reference compound] (Cbz-Leu-Leu-Leu-aldehyde)", "values": [{"measurement": "effect on iRucaparib-induced PARP1 degradation", "setting": "PARP1 [1]", "value": "completely blocked"}, {"measurement": "effect on VHL-Rucaparib-induced PARP1 degradation", "setting": "PARP1 [2]; PC-3 cells, VHL-Rucaparib 10 μM plus MG-132 1 μM", "value": "could be rescued by MG-132 treatment"}]}
{"smiles": "NC(=O)c1cccc2cn(-c3ccc([C@@H]4CCCNC4)cc3)nc12", "note": "[Niraparib]", "values": [{"measurement": "potency in PARP1 trapping (rank order)", "setting": "PARP1 [3]", "value": "BMN673>Niraparib>Olaparib>Rucaparib>Veliparib"}]}
{"smiles": "CN(CCCCc1cn(CCOCCNc2cccc3c2C(=O)N(C2CCC(=O)NC2=O)C3=O)nn1)Cc1ccc(-c2[nH]c3cc(F)cc4c3c2CCNC4=O)cc1", "note": "(centres unmarked) [PEG1, Rucaparib-Triazole-PEG1-Pomalidomide]", "values": [{"measurement": "biochemical (catalytic) inhibition of PARP1", "setting": "PARP1 [4]", "value": "maintained catalytic inhibitory activity against PARP1"}, {"measurement": "PARP1 degradation", "setting": "PARP1 [1]", "value": "not able to degrade PARP1"}]}
{"smiles": "CN(CCCCc1cn(CCOCCOCCNc2cccc3c2C(=O)N(C2CCC(=O)NC2=O)C3=O)nn1)Cc1ccc(-c2[nH]c3cc(F)cc4c3c2CCNC4=O)cc1", "note": "(centres unmarked) [PEG2, Rucaparib-Triazole-PEG2-Pomalidomide]", "values": [{"measurement": "biochemical (catalytic) inhibition of PARP1", "setting": "PARP1 [4]", "value": "maintained catalytic inhibitory activity against PARP1"}, {"measurement": "PARP1 degradation", "setting": "PARP1 [1]", "value": "not able to degrade PARP1"}]}
{"smiles": "CN(CCCCc1cn(CCOCCOCCOCCOCCNc2cccc3c2C(=O)N(C2CCC(=O)NC2=O)C3=O)nn1)Cc1ccc(-c2[nH]c3cc(F)cc4c3c2CCNC4=O)cc1", "note": "(centres unmarked) [PEG4 PROTAC, Rucaparib-Triazole-PEG4-Pomalidomide]", "values": [{"measurement": "PARP1 degradation", "setting": "PARP1 [1]", "value": "able to degrade PARP1 as efficiently as iRucaparib"}]}
{"smiles": "Cc1ncsc1-c1ccc(CNC(=O)[C@@H]2C[C@@H](O)CN2C(=O)[C@@H](NC(=O)CCOCCOCCOCCOCCn2cc(CCCCN(C)Cc3ccc(-c4[nH]c5cc(F)cc6c5c4CCNC6=O)cc3)nn2)C(C)(C)C)cc1", "note": "[VHL-Rucaparib, Rucaparib-Triazole-PEG4-VHL-Ligand]", "values": [{"measurement": "PARP1 downregulation", "setting": "PARP1 [5]", "value": "one of the most significantly downregulated proteins"}, {"measurement": "ZFP91 abundance change", "setting": "ZFP91", "value": "did not show any changes"}, {"measurement": "PARP1 degradation", "setting": "PARP1 [2]; BT549 cells, iRucaparib 5 μM or VHL-Rucaparib 20 μM", "value": "robust PARP1 degradation"}, {"measurement": "PARP1 level", "setting": "PARP1 [2]; BT-549 cells (VHL-proficient)", "value": "successfully downregulated"}, {"measurement": "PARP1 level", "setting": "PARP1 [2]; PC-3 cells (VHL-proficient), 10 μM", "value": "successfully downregulated"}]}
{"smiles": "C[C@]1(c2nc3c(C(N)=O)cccc3[nH]2)CCCN1", "note": "[Veliparib]", "values": [{"measurement": "potency in PARP1 trapping (rank order)", "setting": "PARP1 [3]", "value": "BMN673>Niraparib>Olaparib>Rucaparib>Veliparib"}]}
{"smiles": "Nc1cccc2c1C(=O)N(C1CCC(=O)NC1=O)C2=O", "note": "(centres unmarked) [pomalidomide, reference compound]", "values": [{"measurement": "overall survival (median)", "setting": "[6]", "value": 11.9, "unit": "months"}, {"measurement": "effect on PARP1 protein levels", "setting": "PARP1 [1]; 5 μM", "value": "had no effect on PARP1 protein levels"}, {"measurement": "effect on iRucaparib-induced PARP1 degradation", "setting": "PARP1 [1]", "value": "block PARP1 degradation"}]}
